Experimental data as given in PMC4917279 (Journal of Medicinal Chemistry, 2016).

What was measured:
[1] = Metabolic stability in rat hepatocytes; format: in vitro ADME; conditions: read-out: CL (CLblood) (converted)
Description: Liver cells were distributed in Williams’ medium E containing 5% fetal calf serum (FCS) to glass vials at a density of 1.0 × 10^6 vital cells/mL. The test compound was added to a final concentration of 1 μM. During incubation, the hepatocyte suspensions were continuously shaken and aliquots were taken at 2, 8, 16, 30, 45, and 90 min, to which an equal volume of cold MeOH was immediately added. Samples were frozen at −20 °C overnight, then centrifuged (15 min, 3000 rpm), and the supernatant was analyzed with an Agilent 1200 HPLC system with LC-MS/MS detection. The half-life of a test compound was determined from the concentration–time plot. The intrinsic clearances were calculated from the half-life, together with additional parameters (liver blood flow, quantity of liver cells in vivo and in vitro).

[2] = target: T1, ACVRL1 (Homo sapiens, UniProt P37023); experiment: KINOMEscan; format: binding; conditions: read-out: %Ctrl @ 1000 nM
T1 construct: purchased DiscoveRx KINOMEscan

[3] = target: T2, AMPK-alpha2 (Homo sapiens, UniProt P54646); experiment: KINOMEscan; format: binding; conditions: read-out: %Ctrl @ 1000 nM
T2 construct: purchased DiscoveRx KINOMEscan

[4] = target: T3, CAMKK1 (Homo sapiens, UniProt Q8N5S9); experiment: KINOMEscan; format: binding; conditions: read-out: %Ctrl @ 1000 nM
T3 construct: purchased DiscoveRx KINOMEscan

[5] = target: T4, CDC2L1 (Homo sapiens, UniProt P21127); experiment: KINOMEscan; format: binding; conditions: read-out: %Ctrl @ 1000 nM
T4 construct: purchased DiscoveRx KINOMEscan

[6] = target: T5, CDK11 (Homo sapiens, UniProt Q9BWU1); experiment: KINOMEscan; format: binding; conditions: read-out: %Ctrl @ 1000 nM
T5 construct: purchased DiscoveRx KINOMEscan

[7] = target: T6, CDK9 (Homo sapiens, UniProt P50750); experiment: KINOMEscan; format: binding; conditions: read-out: %Ctrl @ 1000 nM
T6 construct: purchased DiscoveRx KINOMEscan

[8] = target: T7, CLK4 (Homo sapiens, UniProt Q9HAZ1); experiment: KINOMEscan; format: binding; conditions: read-out: %Ctrl @ 1000 nM
T7 construct: purchased DiscoveRx KINOMEscan

[9] = target: T8, CSNK1A1L (Homo sapiens, UniProt Q8N752); experiment: KINOMEscan; format: binding; conditions: read-out: %Ctrl @ 1000 nM
T8 construct: purchased DiscoveRx KINOMEscan

[10] = target: T9, DRAK1 (Homo sapiens, UniProt Q9UEE5); experiment: KINOMEscan; format: binding; conditions: read-out: %Ctrl @ 1000 nM
T9 construct: purchased DiscoveRx KINOMEscan

[11] = target: T10, DYRK1A (Homo sapiens, UniProt Q13627); experiment: KINOMEscan; format: binding; conditions: read-out: %Ctrl @ 1000 nM
T10 construct: purchased DiscoveRx KINOMEscan

[12] = target: T11, DYRK1B (Homo sapiens, UniProt Q9Y463); experiment: KINOMEscan; format: binding; conditions: read-out: %Ctrl @ 1000 nM
T11 construct: purchased DiscoveRx KINOMEscan

[13] = target: T12, EPHA2 (Homo sapiens, UniProt P29317); experiment: KINOMEscan; format: binding; conditions: read-out: %Ctrl @ 1000 nM
T12 construct: purchased DiscoveRx KINOMEscan

[14] = target: T13, ERK1 (Homo sapiens, UniProt P27361); experiment: KINOMEscan; format: binding; conditions: read-out: %Ctrl @ 1000 nM
T13 construct: purchased DiscoveRx KINOMEscan

[15] = target: T14, GSK3A (Homo sapiens, UniProt P49840); experiment: KINOMEscan; format: binding; conditions: read-out: %Ctrl @ 1000 nM
T14 construct: purchased DiscoveRx KINOMEscan

[16] = target: T15, HCK (Homo sapiens, UniProt P08631); experiment: KINOMEscan; format: binding; conditions: read-out: %Ctrl @ 1000 nM
T15 construct: purchased DiscoveRx KINOMEscan

[17] = target: T16, IRAK1 (Homo sapiens, UniProt P51617); experiment: KINOMEscan; format: binding; conditions: read-out: %Ctrl @ 1000 nM
T16 construct: purchased DiscoveRx KINOMEscan

[18] = target: T17, MAK (Homo sapiens, UniProt P20794); experiment: KINOMEscan; format: binding; conditions: read-out: %Ctrl @ 1000 nM
T17 construct: purchased DiscoveRx KINOMEscan

[19] = target: T18, MAP3K3 (Homo sapiens, UniProt Q99759); experiment: KINOMEscan; format: binding; conditions: read-out: %Ctrl @ 1000 nM
T18 construct: purchased DiscoveRx KINOMEscan

[20] = target: T19, MAP4K4 (Homo sapiens, UniProt O95819); experiment: KINOMEscan; format: binding; conditions: read-out: %Ctrl @ 1000 nM
T19 construct: purchased DiscoveRx KINOMEscan

[21] = target: T20, MAPKAPK5 (Homo sapiens, UniProt Q8IW41); experiment: KINOMEscan; format: binding; conditions: read-out: %Ctrl @ 1000 nM
T20 construct: purchased DiscoveRx KINOMEscan

[22] = target: T21, MEK1 (Homo sapiens, UniProt Q02750); experiment: KINOMEscan; format: binding; conditions: read-out: %Ctrl @ 1000 nM
T21 construct: purchased DiscoveRx KINOMEscan

[23] = target: T22, MEK2 (Homo sapiens, UniProt P36507); experiment: KINOMEscan; format: binding; conditions: read-out: %Ctrl @ 1000 nM
T22 construct: purchased DiscoveRx KINOMEscan

[24] = target: T23, MLCK (Homo sapiens, UniProt Q32MK0); experiment: KINOMEscan; format: binding; conditions: read-out: %Ctrl @ 1000 nM
T23 construct: purchased DiscoveRx KINOMEscan

[25] = target: T24, MST4 (Homo sapiens, UniProt Q9P289); experiment: KINOMEscan; format: binding; conditions: read-out: %Ctrl @ 1000 nM
T24 construct: purchased DiscoveRx KINOMEscan

[26] = target: T25, NDR2 (Homo sapiens, UniProt Q9Y2H1); experiment: KINOMEscan; format: binding; conditions: read-out: %Ctrl @ 1000 nM
T25 construct: purchased DiscoveRx KINOMEscan

[27] = target: T26, PAK1 (Homo sapiens, UniProt Q13153); experiment: KINOMEscan; format: binding; conditions: read-out: %Ctrl @ 1000 nM
T26 construct: purchased DiscoveRx KINOMEscan

[28] = target: T27, PAK2 (Homo sapiens, UniProt Q13177); experiment: KINOMEscan; format: binding; conditions: read-out: %Ctrl @ 1000 nM
T27 construct: purchased DiscoveRx KINOMEscan

[29] = target: T28, PIP5K1C (Homo sapiens, UniProt O60331); experiment: KINOMEscan; format: binding; conditions: read-out: %Ctrl @ 1000 nM
T28 construct: purchased DiscoveRx KINOMEscan

[30] = target: T29, PRKX (Homo sapiens, UniProt P51817); experiment: KINOMEscan; format: binding; conditions: read-out: %Ctrl @ 1000 nM
T29 construct: purchased DiscoveRx KINOMEscan

[31] = target: T30, RIPK1 (Homo sapiens, UniProt Q13546); experiment: KINOMEscan; format: binding; conditions: read-out: %Ctrl @ 1000 nM
T30 construct: purchased DiscoveRx KINOMEscan

[32] = target: RPS6KA4(Kin.Dom.2-C-terminal) (Homo sapiens, UniProt O75676); experiment: KINOMEscan; format: binding; conditions: read-out: %Ctrl @ 1000 nM
[33] = target: T31, RSK2(Kin.Dom.1-N-terminal) (Homo sapiens, UniProt P51812); experiment: KINOMEscan; format: binding; conditions: read-out: %Ctrl @ 1000 nM
T31 construct: RSK2(Kin.Dom.1-N-terminal); purchased DiscoveRx KINOMEscan

[34] = target: T32, RSK4(Kin.Dom.2-C-terminal) (Homo sapiens, UniProt Q9UK32); experiment: KINOMEscan; format: binding; conditions: read-out: %Ctrl @ 1000 nM
T32 construct: RSK4(Kin.Dom.2-C-terminal); purchased DiscoveRx KINOMEscan

[35] = target: T33, S6K1 (Homo sapiens, UniProt P23443); experiment: KINOMEscan; format: binding; conditions: read-out: %Ctrl @ 1000 nM
T33 construct: purchased DiscoveRx KINOMEscan

[36] = target: T34, SRC (Homo sapiens, UniProt P12931); experiment: KINOMEscan; format: binding; conditions: read-out: %Ctrl @ 1000 nM
T34 construct: purchased DiscoveRx KINOMEscan

[37] = target: T35, TRKB (Homo sapiens, UniProt Q16620); experiment: KINOMEscan; format: binding; conditions: read-out: %Ctrl @ 1000 nM
T35 construct: purchased DiscoveRx KINOMEscan

[38] = target: T36, WEE2 (Homo sapiens, UniProt P0C1S8); experiment: KINOMEscan; format: binding; conditions: read-out: %Ctrl @ 1000 nM
T36 construct: purchased DiscoveRx KINOMEscan

[39] = target: T37, YANK1 (Homo sapiens, UniProt Q8WU08); experiment: KINOMEscan; format: binding; conditions: read-out: %Ctrl @ 1000 nM
T37 construct: purchased DiscoveRx KINOMEscan

T3 sequence (Q8N5S9 whole entry): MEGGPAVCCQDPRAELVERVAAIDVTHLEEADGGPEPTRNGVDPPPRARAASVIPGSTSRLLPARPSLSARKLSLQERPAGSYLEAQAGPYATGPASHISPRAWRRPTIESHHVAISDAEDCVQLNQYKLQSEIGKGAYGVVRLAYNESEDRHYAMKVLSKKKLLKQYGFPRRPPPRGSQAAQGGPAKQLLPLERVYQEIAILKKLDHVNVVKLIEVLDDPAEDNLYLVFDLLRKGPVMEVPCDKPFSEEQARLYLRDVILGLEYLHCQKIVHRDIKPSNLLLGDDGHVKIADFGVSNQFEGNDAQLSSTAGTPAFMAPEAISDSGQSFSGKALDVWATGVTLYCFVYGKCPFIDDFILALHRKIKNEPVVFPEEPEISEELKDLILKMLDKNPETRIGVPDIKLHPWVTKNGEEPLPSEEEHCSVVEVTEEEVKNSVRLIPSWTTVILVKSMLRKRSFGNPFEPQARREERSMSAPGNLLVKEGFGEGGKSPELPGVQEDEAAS
T31 sequence (P51812 68-397 limits assumed): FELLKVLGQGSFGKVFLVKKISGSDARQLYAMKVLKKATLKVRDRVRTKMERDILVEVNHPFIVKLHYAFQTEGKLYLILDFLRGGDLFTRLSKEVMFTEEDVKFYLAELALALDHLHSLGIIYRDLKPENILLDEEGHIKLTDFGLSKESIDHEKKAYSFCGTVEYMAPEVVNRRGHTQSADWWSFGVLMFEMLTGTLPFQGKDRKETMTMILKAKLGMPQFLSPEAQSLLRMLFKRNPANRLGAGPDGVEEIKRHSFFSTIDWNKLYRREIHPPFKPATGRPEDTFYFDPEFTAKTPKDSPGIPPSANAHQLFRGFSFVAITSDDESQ
T29 sequence (P51817 whole entry): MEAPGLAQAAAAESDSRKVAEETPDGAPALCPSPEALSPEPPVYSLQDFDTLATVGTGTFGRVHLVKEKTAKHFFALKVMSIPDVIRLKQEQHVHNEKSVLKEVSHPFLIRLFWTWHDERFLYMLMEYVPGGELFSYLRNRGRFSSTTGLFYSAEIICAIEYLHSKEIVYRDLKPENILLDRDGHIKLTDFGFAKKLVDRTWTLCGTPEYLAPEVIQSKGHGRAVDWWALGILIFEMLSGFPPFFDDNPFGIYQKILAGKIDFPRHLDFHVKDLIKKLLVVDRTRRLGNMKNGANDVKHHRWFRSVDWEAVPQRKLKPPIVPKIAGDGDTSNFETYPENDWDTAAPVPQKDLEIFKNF
T24 sequence (Q9P289 whole entry): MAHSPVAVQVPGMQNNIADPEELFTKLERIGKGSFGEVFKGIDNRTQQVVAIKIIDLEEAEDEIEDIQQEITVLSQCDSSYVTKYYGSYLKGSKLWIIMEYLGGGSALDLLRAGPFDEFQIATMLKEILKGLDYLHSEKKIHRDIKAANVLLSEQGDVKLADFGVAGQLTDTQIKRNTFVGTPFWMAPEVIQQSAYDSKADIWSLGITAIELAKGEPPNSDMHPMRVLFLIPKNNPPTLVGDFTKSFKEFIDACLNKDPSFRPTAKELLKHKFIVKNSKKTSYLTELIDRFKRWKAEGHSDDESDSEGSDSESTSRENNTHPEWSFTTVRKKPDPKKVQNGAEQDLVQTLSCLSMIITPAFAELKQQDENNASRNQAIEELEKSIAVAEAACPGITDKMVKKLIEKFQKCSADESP
T28 sequence (O60331 whole entry): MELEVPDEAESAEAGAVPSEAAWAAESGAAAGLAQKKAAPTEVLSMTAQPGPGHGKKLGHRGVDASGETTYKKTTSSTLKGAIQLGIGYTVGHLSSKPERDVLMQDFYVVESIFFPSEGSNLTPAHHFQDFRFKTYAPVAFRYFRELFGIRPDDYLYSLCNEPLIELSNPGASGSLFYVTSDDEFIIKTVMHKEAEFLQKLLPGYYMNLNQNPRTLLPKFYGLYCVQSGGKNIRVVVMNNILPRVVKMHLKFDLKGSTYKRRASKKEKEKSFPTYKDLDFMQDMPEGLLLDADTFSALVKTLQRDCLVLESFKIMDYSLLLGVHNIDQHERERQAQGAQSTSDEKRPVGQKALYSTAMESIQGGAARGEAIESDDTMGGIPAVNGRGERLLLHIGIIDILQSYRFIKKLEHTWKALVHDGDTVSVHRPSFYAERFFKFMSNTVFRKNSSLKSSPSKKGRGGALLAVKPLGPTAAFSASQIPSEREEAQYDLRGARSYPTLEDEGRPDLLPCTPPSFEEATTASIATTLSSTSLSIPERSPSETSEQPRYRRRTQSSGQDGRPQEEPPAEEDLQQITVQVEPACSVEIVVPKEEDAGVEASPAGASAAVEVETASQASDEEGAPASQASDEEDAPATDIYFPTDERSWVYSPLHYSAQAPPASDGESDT
T13 sequence (P27361 whole entry): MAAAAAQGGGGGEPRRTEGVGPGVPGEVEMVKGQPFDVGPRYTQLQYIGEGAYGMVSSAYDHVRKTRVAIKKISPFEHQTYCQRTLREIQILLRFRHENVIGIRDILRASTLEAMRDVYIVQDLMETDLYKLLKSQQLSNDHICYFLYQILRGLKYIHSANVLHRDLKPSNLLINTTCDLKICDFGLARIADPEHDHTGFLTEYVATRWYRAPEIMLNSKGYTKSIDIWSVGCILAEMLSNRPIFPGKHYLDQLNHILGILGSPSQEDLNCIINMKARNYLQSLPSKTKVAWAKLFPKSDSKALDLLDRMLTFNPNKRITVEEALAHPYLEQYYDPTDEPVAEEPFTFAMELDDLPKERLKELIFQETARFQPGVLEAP
T36 sequence (P0C1S8 whole entry): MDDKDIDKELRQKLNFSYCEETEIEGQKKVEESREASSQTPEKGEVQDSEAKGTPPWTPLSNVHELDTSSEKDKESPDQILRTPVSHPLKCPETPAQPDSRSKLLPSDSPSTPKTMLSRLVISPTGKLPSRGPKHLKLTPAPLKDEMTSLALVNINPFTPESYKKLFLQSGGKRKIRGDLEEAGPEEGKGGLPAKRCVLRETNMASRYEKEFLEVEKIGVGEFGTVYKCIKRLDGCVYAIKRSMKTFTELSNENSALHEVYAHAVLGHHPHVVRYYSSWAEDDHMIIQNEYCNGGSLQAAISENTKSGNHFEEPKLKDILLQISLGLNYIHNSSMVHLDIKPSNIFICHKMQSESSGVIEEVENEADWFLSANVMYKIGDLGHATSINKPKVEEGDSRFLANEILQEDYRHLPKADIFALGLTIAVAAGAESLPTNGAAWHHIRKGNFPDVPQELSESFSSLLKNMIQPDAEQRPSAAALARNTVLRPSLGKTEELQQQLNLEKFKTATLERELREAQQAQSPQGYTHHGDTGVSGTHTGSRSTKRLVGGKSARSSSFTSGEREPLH
T9 sequence (Q9UEE5 whole entry): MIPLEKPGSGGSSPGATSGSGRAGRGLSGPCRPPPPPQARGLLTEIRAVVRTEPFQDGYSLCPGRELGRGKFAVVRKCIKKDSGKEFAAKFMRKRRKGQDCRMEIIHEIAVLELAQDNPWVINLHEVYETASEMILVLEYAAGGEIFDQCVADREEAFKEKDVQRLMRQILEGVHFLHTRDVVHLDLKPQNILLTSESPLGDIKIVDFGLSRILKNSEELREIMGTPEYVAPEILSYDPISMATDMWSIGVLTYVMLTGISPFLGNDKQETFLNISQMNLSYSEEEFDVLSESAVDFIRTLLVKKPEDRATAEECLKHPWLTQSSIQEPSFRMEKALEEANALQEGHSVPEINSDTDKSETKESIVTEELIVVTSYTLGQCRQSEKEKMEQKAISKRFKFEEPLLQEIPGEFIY
T20 sequence (Q8IW41 whole entry): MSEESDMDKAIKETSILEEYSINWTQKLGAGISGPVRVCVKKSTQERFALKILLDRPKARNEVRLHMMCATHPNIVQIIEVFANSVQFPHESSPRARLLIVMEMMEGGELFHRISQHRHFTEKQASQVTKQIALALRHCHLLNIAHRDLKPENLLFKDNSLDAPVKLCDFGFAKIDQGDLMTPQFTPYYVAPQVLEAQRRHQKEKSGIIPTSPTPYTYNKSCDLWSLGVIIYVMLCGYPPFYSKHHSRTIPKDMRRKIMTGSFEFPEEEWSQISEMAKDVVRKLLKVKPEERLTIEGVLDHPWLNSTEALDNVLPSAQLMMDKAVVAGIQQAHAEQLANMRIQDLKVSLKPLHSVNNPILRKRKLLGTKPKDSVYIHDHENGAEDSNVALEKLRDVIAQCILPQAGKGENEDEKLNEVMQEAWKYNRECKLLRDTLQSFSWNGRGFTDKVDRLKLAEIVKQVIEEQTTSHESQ
T8 sequence (Q8N752 whole entry): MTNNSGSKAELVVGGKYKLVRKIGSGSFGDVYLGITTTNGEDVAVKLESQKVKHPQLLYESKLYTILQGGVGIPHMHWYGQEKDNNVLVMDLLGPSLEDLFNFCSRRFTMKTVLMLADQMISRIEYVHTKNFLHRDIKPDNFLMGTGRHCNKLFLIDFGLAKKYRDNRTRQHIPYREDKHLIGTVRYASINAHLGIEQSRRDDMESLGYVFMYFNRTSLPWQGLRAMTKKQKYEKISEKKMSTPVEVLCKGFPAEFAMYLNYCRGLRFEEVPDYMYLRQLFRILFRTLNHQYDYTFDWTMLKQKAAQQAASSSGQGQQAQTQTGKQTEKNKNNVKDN
T33 sequence (P23443 whole entry): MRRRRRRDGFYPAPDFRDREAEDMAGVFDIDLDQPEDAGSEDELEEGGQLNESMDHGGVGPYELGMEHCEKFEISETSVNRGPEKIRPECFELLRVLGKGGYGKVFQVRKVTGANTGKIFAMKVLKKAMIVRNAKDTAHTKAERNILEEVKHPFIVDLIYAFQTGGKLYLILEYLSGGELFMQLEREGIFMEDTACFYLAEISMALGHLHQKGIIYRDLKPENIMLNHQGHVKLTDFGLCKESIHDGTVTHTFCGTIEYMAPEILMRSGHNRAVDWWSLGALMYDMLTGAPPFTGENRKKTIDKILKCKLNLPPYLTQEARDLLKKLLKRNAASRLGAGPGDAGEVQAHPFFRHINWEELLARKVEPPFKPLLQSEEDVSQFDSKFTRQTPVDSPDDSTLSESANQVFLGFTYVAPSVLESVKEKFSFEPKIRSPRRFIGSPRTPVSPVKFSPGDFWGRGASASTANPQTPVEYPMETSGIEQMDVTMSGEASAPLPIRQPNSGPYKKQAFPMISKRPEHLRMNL

## CCN(C(=O)CO)[C@H]1CN(/C(=N\C#N)Nc2cccc(OC(F)F)c2)N=C1c1ccc(Cl)c(Cl)c1 [(S)-4]
[1]
  CLhep predicted at […], 1 µM: 41.7 mL/min/kg
[2]
  remaining binding at 1 µM: 74%
[3]
  remaining binding at 1 µM: 85%
[4]
  remaining binding at 1 µM: 84%
[5]
  remaining binding at 1 µM: 97%
[6]
  remaining binding at 1 µM: 85%
[7]
  remaining binding at 1 µM: 74%
[8]
  remaining binding at 1 µM: 94%
[9]
  remaining binding at 1 µM: 94%
[10]
  remaining binding at 1 µM: 100%
[11]
  remaining binding at 1 µM: 100%
[12]
  remaining binding at 1 µM: 74%
[13]
  remaining binding at 1 µM: 84%
[14]
  remaining binding at 1 µM: 100%
[15]
  remaining binding at 1 µM: 88%
[16]
  remaining binding at 1 µM: 68%
[17]
  remaining binding at 1 µM: 92%
[18]
  remaining binding at 1 µM: 74%
[19]
  remaining binding at 1 µM: 73%
[20]
  remaining binding at 1 µM: 100%
[21]
  remaining binding at 1 µM: 100%
[22]
  remaining binding at 1 µM: 98%
[23]
  remaining binding at 1 µM: 90%
[24]
  remaining binding at 1 µM: 100%
[25]
  remaining binding at 1 µM: 81%
[26]
  remaining binding at 1 µM: 76%
[27]
  remaining binding at 1 µM: 84%
[28]
  remaining binding at 1 µM: 89%
[29]
  remaining binding at 1 µM: 86%
[30]
  remaining binding at 1 µM: 100%
[31]
  remaining binding at 1 µM: 76%
[32]
  remaining binding at 1 µM: 93%
[33]
  remaining binding at 1 µM: 99%
[34]
  remaining binding at 1 µM: 100%
[35]
  remaining binding at 1 µM: 87%
[36]
  remaining binding at 1 µM: 79%
[37]
  remaining binding at 1 µM: 100%
[38]
  remaining binding at 1 µM: 100%
[39]
  remaining binding at 1 µM: 77%
